Laboratory results reported in patent publication US6958141B2, “Rhenium and technetium complexes containing a hypoxia-localizing moiety” (Bracco International B.V., priority 1991, dated 2005).

How the values were obtained:
[1] = test system: Isolated Perfused Rat Heart; assay: Isolated perfused heart studies (Langendorff), retention of tracer; design: species or system male Sprague Dawley rats; conditions: radioactivity 40 minutes after end of 20 minute infusion divided by peak, n=4
Description: Hearts were excised from male Sprague Dawley rats (275-325 g) and were perfused retrogradely using the Langendorff method (O. Langendorff, Pfleugers Arch. ges. Physiol, 61, 291, […]) with modifications described previously (W. Rumsey, D. F. Wilson and M. Erecinska, Am. J. Physiol., 253 (Heart Circ. Physiol. 22): H1098, 1987) in the isolated state at 37° C. with Krebs-Henseleit buffer. The perfusate contained [in mM] NaCl, KCl [4.7], CaCl2 [1.8], Na2EDTA [0.5], KH2PO4 [1.2], MgSO4 [1.2], NaHCO3 [25], glucose, pyruvate [0.2], and insulin (12 IU/L) and was equilibrated with O2:CO2 (95:5) (global normoxia) or N2:CO2 (95:5) (global hypoxia). The hearts were paced continuously at 5 Hz. […]
For determination of oxygen consumption, a cannula was placed in the right ventricle via the pulmonary artery. A pump removed a small fraction of the coronary effluent at 1 mL/min., and its oxygen concentration was monitored continuously by an in-line Clark-type electrode. […] Coronary flow was measured by collecting the effluent from the right and left pulmonary arteries in a 10 mL graduated cylinder. Oxygen consumption was calculated from the product of the influent-effluent oxygen concentration difference and the coronary flow. During perfusion with hypoxic medium, only the effluent oxygen concentration was recorded. […]

[2] = test system: Calcium-tolerant ventricular myocytes; assay: Isolated cardiac myocyte studies, retention of radioactivity; type: cell-based, male Sprague Dawley rats; conditions: for Oil: dibutyl phthalate layer; for Oil / PCA Pellet / Cell Pellet: means ±S.E.M.; for PCA Pellet: perchloric acid-precipitated pellet; for Cell Pellet: whole cells passed through dibutyl phthalate; for percentage of activity associated with the protein/membrane fragments: cells disrupted by freezing and thawing (3×)
From the text: Calcium-tolerant ventricular myocytes were isolated from hearts of male Sprague Dawley rats (200 g) according to the procedure of Wittenberg and Robinson (B. A. Wittenberg and T. F. Robinson, Cell Tissue Res., 216: 231, 1981) with modifications described previously (W. Rumsey, C. Schlosser, E. M. Nuutinen, M. Robiolio and D. F. Wilson, J. Biol. Chem., 265 (26): 15392, 1990). Cells were used immediately following morphological analysis (using a hemocytometer) of viability and were maintained at 37° C. during the experiments. The number of quiescent, rod shaped cells ranged from 70-90% within a total population of 5-9×10^6 cells.
The isolated myocytes were maintained in either a normoxic, hypoxic or anoxic state. Hypoxia was induced by providing an atmosphere of argon atop of the cells and sealing the flask during the incubation period. Glucose oxidase plus catalase (5/5 mg) was added to argon treated cells to provide anoxia. Cells were suspended (6.5-7.5×10^4 cells/ml) in isolation media and aliquots were added to incubation vials maintained at 37° C.
After incubation with a test compound, myocytes were deproteinated with 1% ice-cold perchloric acid and centrifuged at 12,000 rpm for 30 sec. The supernatent was separated from the pellet and each counted using a LKB 1282 gamma counter. Alternatively, myocytes were separated from the suspending media by passing the cells through 99% dibutyl phthalate by centrifugation at 12,000 rpm for 30 sec. The three phases were separated and counted as described above. Results for the Tc-99m complex of the compound in Example 1 are given below:
Values represent means ±S.E.M. for the number of experiments noted in the parentheses. The values are the percent of total radioactivity represented by each case. PCA pellet=perchloric acid-precipitated pellet which represents the activity associated with proteins/membranes. Cell pellet=whole cells passed through a layer of dibutyl phthalate (oil).
Several Tc-99m complexes were examined in isolated myocytes using the protocol described above. The percentage of activity retained in the cell pellet was determined under anoxic and normoxic states.

[3] = Anoxia (Glucose Oxidase) (n = 4)
[4] = isolated myocytes, several Tc-99m complexes
[5] = separate study, number of experiments in parentheses

[^99mTc]Oxo[[3,3,9,9-tetramethyl-1-(2-nitro-1H-imidazo-1-yl)-4,8-diazaundecane-2,10-dione dioximato]-(3-)-N,N′,N″,N′″]technetium(V) [^99mTc complex from ligand in Ex. 1]
% Retention of Tracer in the Isolated Perfused Rat Heart, Hypoxia ([1]; N2:CO2 (95:5)): 65.3 ± 3%
% Retention of Tracer in the Isolated Perfused Rat Heart, Normoxia ([1]; O2:CO2 (95:5)): 33.5 ± 2.5%
Anoxia/normoxia [2]: 2.7
Anoxia/normoxia ratio [2]: 2.3
Hypoxia/normoxia [2]: 1.7
Oil [2, 3]: 9.0 ± 2.6% of total radioactivity
PCA Pellet [2, 3]: 55.5 ± 5.8% of total radioactivity
Cell Pellet [2, 3]: 48.8 ± 4.2% of total radioactivity
Oil ([2]; Hypoxia (Argon) (n = 4)): 20.1 ± 5.3% of total radioactivity
PCA Pellet ([2]; Hypoxia (Argon) (n = 4)): 48.5 ± 3.4% of total radioactivity
Cell Pellet ([2]; Hypoxia (Argon) (n = 4)): 36.9 ± 8.8% of total radioactivity
Oil ([2]; Normoxia (n = 5)): 22.8 ± 2.2% of total radioactivity
PCA Pellet ([2]; Normoxia (n = 5)): 40.5 ± 2.7% of total radioactivity
Cell Pellet ([2]; Normoxia (n = 5)): 23.2 ± 3.7% of total radioactivity
percentage of activity associated with the protein/membrane fragments ([2]; anoxic (glucose oxidase), n=3): 25.3±2.5%
percentage of activity associated with the protein/membrane fragments ([2]; normoxic, n=3): 23.3±0.8%
% in Cell Pellet, Anoxia [2, 4]: 53.0 ± 2.2%
% in Cell Pellet, Normoxia [2, 4]: 24.1 ± 2.3%
effect of FCCP (uncoupler) on retention ([2]; normoxic cells): had no effect on the retention
effect of cyanide on retention ([2]; normoxic cells, n=3): had no effect on retention in normoxic cells
uptake in isolated myocytes, Anoxia [2, 5]: 48 ± 6 (3)
uptake in isolated myocytes, Hypoxia [2, 5]: 30 ± 7 (3)
uptake in isolated myocytes, Normoxia [2, 5]: 18 ± 1 (3)
